Positions of bridges follow the written chain, without caps; N, C: chain ends. Non-standard residues stand in square brackets, D forms with d. Residues, ends and D or L forms follow the SMILES beside them. Cha = N[C@@H](CC1CCCCC1)C(=O)O; NMeNva = CCC[C@H](NC)C(=O)O; NMeAbu = CC[C@H](NC)C(=O)O; NMeC = CN[C@@H](CS)C(=O)O; NMeA = CN[C@@H](C)C(=O)O; Nva = CCC[C@H](N)C(=O)O; Abu = CC[C@H](N)C(=O)O; NPrGly = CCCNCC(=O)O; NEtG = CCNCC(=O)O
Assays:
[1] = PAMPA, 10 µM, pH 7.4
[2] = in vitro; details: PAMPA

| SMILES | %R_avg [1] | further results |
| --- | --- | --- |
| CCCN1CC(=O)N[C@@H](CC(C)C)C(=O)N(C)[C@@H](C)C(=O)N[C@@H](CC(C)C)C(=O)N(C)[C@H](C(=O)OCC)CSCC(=O)N[C@@H](CC(C)C)C(=O)N(C)[C@@H](C)C(=O)N[C@@H](CC(C)C)C(=O)N2CCC[C@@H]2C1=O [LA08, O=C(N(C)[C@H](C(OCC)=O)CSCC(N[C@H](C(N(C)[C@@H](C)C(N[C@@H](CC(C)C)C(N1[C@H](CCC1)C(N(CCC)CC(N[C@H]2CC(C)C)=O)=O)=O)=O)=O)CC(C)C)=O)[C@H](CC(C)C)NC([C@H](C)N(C)C2=O)=O] ({CH2CO}-L[NMeA]L[dP][NPrGly]L[NMeA]L[NMeC]-OEt; thioether N-9) | 4.8% | log(Pe)_avg [1]: -6.100; Papp at 10 µM ([2]; pH 7.4, Pe_avg): 0.794 ×10⁻⁶ cm/s |
| CCC[C@@H]1NC(=O)CN(CCC)C(=O)[C@H](CC(C)C)NC(=O)CSC[C@@H](C(=O)OCC)N(C)C(=O)[C@H](CC(C)C)NC(=O)[C@H](C)N(C)C(=O)[C@H](CC)NC(=O)[C@H](C)N(C)C(=O)[C@H]2CCCN2C1=O [LB03, O=C(N(C)[C@H](C(OCC)=O)CSCC(N[C@H](C1=O)CC(C)C)=O)[C@H](CC(C)C)NC([C@H](C)N(C)C([C@H](CC)NC([C@H](C)N(C)C([C@@H]2N(C([C@H](CCC)NC(CN1CCC)=O)=O)CCC2)=O)=O)=O)=O] ({CH2CO}-L[NPrGly][Nva][dP][NMeA][Abu][NMeA]L[NMeC]-OEt; thioether N-9) | 61.4% |  |
| CCC[C@@H]1NC(=O)CN(CC)C(=O)[C@H](CC(C)C)NC(=O)CSC[C@@H](C(=O)OCC)N(C)C(=O)[C@H](CC(C)C)NC(=O)[C@H](C)N(C)C(=O)[C@H](CC(C)C)NC(=O)[C@H](C)N(C)C(=O)[C@H]2CCCN2C1=O [LB05, O=C(N(C)[C@H](C(OCC)=O)CSCC(N[C@H](C1=O)CC(C)C)=O)[C@H](CC(C)C)NC([C@H](C)N(C)C([C@H](CC(C)C)NC([C@H](C)N(C)C([C@@H]2N(C([C@H](CCC)NC(CN1CC)=O)=O)CCC2)=O)=O)=O)=O] ({CH2CO}-L[NEtG][Nva][dP][NMeA]L[NMeA]L[NMeC]-OEt; thioether N-9) | 50.3% | Papp at 10 µM ([2]; pH 7.4, Pe_avg): 2.57 ×10⁻⁶ cm/s |
| CCOC(=O)[C@@H]1CSCC(=O)N[C@@H](CC(C)C)C(=O)N(CC)CC(=O)N[C@@H](CC(C)C)C(=O)N2CCC[C@@H]2C(=O)N(C)[C@@H](C)C(=O)N[C@@H](CC(C)C)C(=O)N(C)[C@@H](C)C(=O)N[C@@H](CC(C)C)C(=O)N1C [LB06, O=C(N(C)[C@H](C(OCC)=O)CSCC(N[C@H](C1=O)CC(C)C)=O)[C@H](CC(C)C)NC([C@H](C)N(C)C([C@H](CC(C)C)NC([C@H](C)N(C)C([C@@H]2N(C([C@H](CC(C)C)NC(CN1CC)=O)=O)CCC2)=O)=O)=O)=O] ({CH2CO}-L[NEtG]L[dP][NMeA]L[NMeA]L[NMeC]-OEt; thioether N-9) | 12.6% |  |
| CCCN1CC(=O)N[C@@H](CC(C)C)C(=O)N2CCC[C@@H]2C(=O)N(C)[C@@H](C)C(=O)N[C@@H](CC(C)C)C(=O)N(C)[C@@H](C)C(=O)N[C@@H](CC(C)C)C(=O)N(C)[C@H](C(=O)OCC)CSCC(=O)N[C@@H](CC(C)C)C1=O [LB08, O=C(N(C)[C@H](C(OCC)=O)CSCC(N[C@H](C1=O)CC(C)C)=O)[C@H](CC(C)C)NC([C@H](C)N(C)C([C@H](CC(C)C)NC([C@H](C)N(C)C([C@@H]2N(C([C@H](CC(C)C)NC(CN1CCC)=O)=O)CCC2)=O)=O)=O)=O] ({CH2CO}-L[NPrGly]L[dP][NMeA]L[NMeA]L[NMeC]-OEt; thioether N-9) | 13.3% | Papp at 10 µM ([2]; pH 7.4, Pe_avg): 2.29 ×10⁻⁶ cm/s |
| CCOC(=O)[C@@H]1CSCC(=O)N[C@@H](CC(C)C)C(=O)N(CC)CC(=O)N[C@@H](CC(C)C)C(=O)N2CCC[C@@H]2C(=O)N(C)[C@@H](C)C(=O)N[C@@H](CC2CCCCC2)C(=O)N(C)[C@@H](C)C(=O)N[C@@H](CC(C)C)C(=O)N1C [LB10, O=C(N(C)[C@H](C(OCC)=O)CSCC(N[C@H](C1=O)CC(C)C)=O)[C@H](CC(C)C)NC([C@H](C)N(C)C([C@H](CC2CCCCC2)NC([C@H](C)N(C)C([C@@H]3N(C([C@H](CC(C)C)NC(CN1CC)=O)=O)CCC3)=O)=O)=O)=O] ({CH2CO}-L[NEtG]L[dP][NMeA][Cha][NMeA]L[NMeC]-OEt; thioether N-9) | 8.0% |  |
| CCC[C@@H]1NC(=O)CN(CCC)C(=O)[C@H](CC(C)C)NC(=O)CSC[C@@H](C(=O)OCC)N(C)C(=O)[C@H](CC(C)C)NC(=O)[C@H](C)N(C)C(=O)[C@H](CC2CCCCC2)NC(=O)[C@H](C)N(C)C(=O)[C@H]2CCCN2C1=O [LB11, O=C(N(C)[C@H](C(OCC)=O)CSCC(N[C@H](C1=O)CC(C)C)=O)[C@H](CC(C)C)NC([C@H](C)N(C)C([C@H](CC2CCCCC2)NC([C@H](C)N(C)C([C@@H]3N(C([C@H](CCC)NC(CN1CCC)=O)=O)CCC3)=O)=O)=O)=O] ({CH2CO}-L[NPrGly][Nva][dP][NMeA][Cha][NMeA]L[NMeC]-OEt; thioether N-9) | 6.2% | Papp at 10 µM ([2]; pH 7.4, Pe_avg): 0.619 ×10⁻⁶ cm/s; Papp at 10 µM ([2]; pH 7.4, log(Pe)_avg): 0.551 ×10⁻⁶ cm/s |
| CCC[C@@H]1NC(=O)[C@H](C)N(C)C(=O)[C@H](CC(C)C)NC(=O)CSC[C@@H](C(=O)OCC)N(C)C(=O)[C@H](CC(C)C)NC(=O)[C@H](C)N(C)C(=O)[C@H](CC)NC(=O)[C@H](CC)N(C)C(=O)[C@H]2CCCN2C1=O [LC01, O=C(N(C)[C@H](C(OCC)=O)CSCC(N[C@H](C(N(C)[C@@H](C)C(N[C@@H](CCC)C(N1[C@H](CCC1)C(N(C)[C@@H](CC)C(N[C@H]2CC)=O)=O)=O)=O)=O)CC(C)C)=O)[C@H](CC(C)C)NC([C@H](C)N(C)C2=O)=O] ({CH2CO}-L[NMeA][Nva][dP][NMeAbu][Abu][NMeA]L[NMeC]-OEt; thioether N-9) | 30.1% |  |
| CCC[C@@H]1NC(=O)[C@H](C)N(C)C(=O)[C@H](CC(C)C)NC(=O)CSC[C@@H](C(=O)OCC)N(C)C(=O)[C@H](CC(C)C)NC(=O)[C@H](C)N(C)C(=O)[C@H](CC)NC(=O)[C@H](CCC)N(C)C(=O)[C@H]2CCCN2C1=O [LC03, O=C(N(C)[C@H](C(OCC)=O)CSCC(N[C@H](C(N(C)[C@@H](C)C(N[C@@H](CCC)C(N1[C@H](CCC1)C(N(C)[C@@H](CCC)C(N[C@H]2CC)=O)=O)=O)=O)=O)CC(C)C)=O)[C@H](CC(C)C)NC([C@H](C)N(C)C2=O)=O] ({CH2CO}-L[NMeA][Nva][dP][NMeNva][Abu][NMeA]L[NMeC]-OEt; thioether N-9) | 20.3% |  |
| CCC[C@@H]1NC(=O)[C@H](C)N(C)C(=O)[C@H](CC(C)C)NC(=O)CSC[C@@H](C(=O)OCC)N(C)C(=O)[C@H](CC(C)C)NC(=O)[C@H](C)N(C)C(=O)[C@H](CC(C)C)NC(=O)[C@H](CC)N(C)C(=O)[C@H]2CCCN2C1=O [LC05, O=C(N(C)[C@H](C(OCC)=O)CSCC(N[C@H](C(N(C)[C@@H](C)C(N[C@@H](CCC)C(N1[C@H](CCC1)C(N(C)[C@@H](CC)C(N[C@H]2CC(C)C)=O)=O)=O)=O)=O)CC(C)C)=O)[C@H](CC(C)C)NC([C@H](C)N(C)C2=O)=O] ({CH2CO}-L[NMeA][Nva][dP][NMeAbu]L[NMeA]L[NMeC]-OEt; thioether N-9) | 7.6% |  |
| CCOC(=O)[C@@H]1CSCC(=O)N[C@@H](CC(C)C)C(=O)N(C)[C@@H](C)C(=O)N[C@@H](CC(C)C)C(=O)N2CCC[C@@H]2C(=O)N(C)[C@@H](CC)C(=O)N[C@@H](CC(C)C)C(=O)N(C)[C@@H](C)C(=O)N[C@@H](CC(C)C)C(=O)N1C [LC06, O=C(N(C)[C@H](C(OCC)=O)CSCC(N[C@H](C(N(C)[C@@H](C)C(N[C@@H](CC(C)C)C(N1[C@H](CCC1)C(N(C)[C@@H](CC)C(N[C@H]2CC(C)C)=O)=O)=O)=O)=O)CC(C)C)=O)[C@H](CC(C)C)NC([C@H](C)N(C)C2=O)=O] ({CH2CO}-L[NMeA]L[dP][NMeAbu]L[NMeA]L[NMeC]-OEt; thioether N-9) | 4.6% |  |
| CCC[C@H]1C(=O)N[C@@H](CC(C)C)C(=O)N(C)[C@@H](C)C(=O)N[C@@H](CC(C)C)C(=O)N(C)[C@H](C(=O)OCC)CSCC(=O)N[C@@H](CC(C)C)C(=O)N(C)[C@@H](C)C(=O)N[C@@H](CC(C)C)C(=O)N2CCC[C@@H]2C(=O)N1C [LC08, O=C(N(C)[C@H](C(OCC)=O)CSCC(N[C@H](C(N(C)[C@@H](C)C(N[C@@H](CC(C)C)C(N1[C@H](CCC1)C(N(C)[C@@H](CCC)C(N[C@H]2CC(C)C)=O)=O)=O)=O)=O)CC(C)C)=O)[C@H](CC(C)C)NC([C@H](C)N(C)C2=O)=O] ({CH2CO}-L[NMeA]L[dP][NMeNva]L[NMeA]L[NMeC]-OEt; thioether N-9) | 4.6% |  |
| CCOC(=O)[C@@H]1CSCC(=O)N[C@@H](CC(C)C)C(=O)N(C)[C@@H](C)C(=O)N[C@@H](CC(C)C)C(=O)N2CCC[C@@H]2C(=O)N(C)[C@@H](CC)C(=O)N[C@@H](CC2CCCCC2)C(=O)N(C)[C@@H](C)C(=O)N[C@@H](CC(C)C)C(=O)N1C [LC10, O=C(N(C)[C@H](C(OCC)=O)CSCC(N[C@H](C(N(C)[C@@H](C)C(N[C@@H](CC(C)C)C(N1[C@H](CCC1)C(N(C)[C@@H](CC)C(N[C@H]2CC3CCCCC3)=O)=O)=O)=O)=O)CC(C)C)=O)[C@H](CC(C)C)NC([C@H](C)N(C)C2=O)=O] ({CH2CO}-L[NMeA]L[dP][NMeAbu][Cha][NMeA]L[NMeC]-OEt; thioether N-9) | 10.5% |  |
| CCC[C@@H]1NC(=O)[C@H](C)N(C)C(=O)[C@H](CC(C)C)NC(=O)CSC[C@@H](C(=O)OCC)N(C)C(=O)[C@H](CC(C)C)NC(=O)[C@H](C)N(C)C(=O)[C@H](CC2CCCCC2)NC(=O)[C@H](CCC)N(C)C(=O)[C@H]2CCCN2C1=O [LC11, O=C(N(C)[C@H](C(OCC)=O)CSCC(N[C@H](C(N(C)[C@@H](C)C(N[C@@H](CCC)C(N1[C@H](CCC1)C(N(C)[C@@H](CCC)C(N[C@H]2CC3CCCCC3)=O)=O)=O)=O)=O)CC(C)C)=O)[C@H](CC(C)C)NC([C@H](C)N(C)C2=O)=O] ({CH2CO}-L[NMeA][Nva][dP][NMeNva][Cha][NMeA]L[NMeC]-OEt; thioether N-9) | 7.4% |  |
| CCC[C@H]1C(=O)N[C@@H](CC2CCCCC2)C(=O)N(C)[C@@H](C)C(=O)N[C@@H](CC(C)C)C(=O)N(C)[C@H](C(=O)OCC)CSCC(=O)N[C@@H](CC(C)C)C(=O)N(C)[C@@H](C)C(=O)N[C@@H](CC(C)C)C(=O)N2CCC[C@@H]2C(=O)N1C [LC12, O=C(N(C)[C@H](C(OCC)=O)CSCC(N[C@H](C(N(C)[C@@H](C)C(N[C@@H](CC(C)C)C(N1[C@H](CCC1)C(N(C)[C@@H](CCC)C(N[C@H]2CC3CCCCC3)=O)=O)=O)=O)=O)CC(C)C)=O)[C@H](CC(C)C)NC([C@H](C)N(C)C2=O)=O] ({CH2CO}-L[NMeA]L[dP][NMeNva][Cha][NMeA]L[NMeC]-OEt; thioether N-9) | 12.7% | Pe_avg [1]: 0 ×10⁻⁶ cm/s |
